The source of these data is US6855309B2, “Cascade polymer bound complexing compounds, their complexes and conjugates, processes for their production, and pharmaceutical agents containing them” (Schering, AG, priority 1989, dated 2005).

For data set [1] the following is noted: rat, in vivo; cited from earlier work.
A further data set concerns mice. As to the kind of experiment: LD50 i.v. in mice. The format is in vivo.
The conditions of data set [2]: in vivo, cited from earlier work.
A short description of data set [3]: Concentration-time curve in blood after intravenous administration in rats. The format is in vivo. The settings on record: 0.2 mmol/kg intravenous.
A short description of another data set: Osmolality. To be noted: 0.5 mol/l at 37° C. The format is physicochemical.
The conditions of data set [4]: rat, in vivo; cited from earlier work. This is another data set of the same source.

Read-outs that look alike come from different tables or passages of the source. Some results are limits rather than exact numbers.

As for Albumin-GdDTPA, the dose eliminated in data set [1] is on record as 20 % of the dose.
Take `CNC[C@H](O)[C@@H](O)[C@H](O)[C@H](O)CO.CNC[C@H](O)[C@@H](O)[C@H](O)[C@H](O)CO.O=C([O-])CN(CCN(CC(=O)[O-])CC(=O)O)CCN(CC(=O)[O-])CC(=O)O.[Gd+3]` [Magnevist, GdDTPA/dimeglumine]: in the data set with mice, the LD50 was ≤ 10 mmol/kg. Also, the route of elimination entry in data set [2] (iv) is “eliminated, upon intravenous injection, by way of the kidneys”. The “distribution after intravenous administration” value in data set [2] is “distributed after intravenous administration uniformly between the vasal and interstitial spaces”. In addition, in data set [3], the distribution space entry is “distributed in the extracellular space”. In the data set “Osmolality”, this compound had an Osmolality of 1.96 osmol/kg.
polylysine-GdDTPA: the route of elimination entry in data set [4] is recorded as “eliminated unchanged by glomerular filtration via the kidneys”.

The LD50 is the dose expected to kill half of the subjects tested. Low readings indicate a more toxic substance, high ones a less toxic substance.
